Results published in US20030211636A1, “Point of care test for measurement of therapeutic drug levels” (Pfizer Inc., priority 2002, published 2003).
Read-outs that look alike come from different tables or passages of the source.

Key:
[1] = Compound 122 saliva concentrations in healthy human subjects after oral administration (HPLC-MS/MS); format: in vivo; conditions: for concentration at 2 h / concentration at 4 h / concentration at 8 h / concentration at 24 h / concentration at 0 h: human, saliva, po
Description: (§1) Stock solutions of Compound 122-HCl salt and internal standard 2-difluoromethoxy-5-trifluoromethoxy-benzyl)-(2-phenyl-piperidin-3-yl)-amine] HCl salt (hereinafter referred to as IS, for internal standard) were prepared at concentrations of 100 μg/ml in 1:1 Methanol/Water and stored at −20° C. […] Serial dilutions of the stock solutions were prepared in 1:1 Methanol/Water as needed. Standard curve samples were freshly prepared using serial dilutions of stock so that equivalent additions produced 0.1, 0.2, 0.5, 2, 10, and 50 ng/ml solutions in Control Human Saliva (CHS). Quality control samples were prepared from a different stock solution similarly at 0.15, 5, and 40 ng/ml in CHS.
Aliquots (50 μl) of Human saliva, 200 μl of 0.1% Ammonium Hydroxide and 50 μl of 2.0 ng/ml IS were added, in sequence, to one well of a 96 well block. The plate was centrifuged briefly to consolidate the above contents and placed onto a TomTec Quadra 96. An automatic program was used that performs the following steps: conditions a Waters brand 10 mg Oasis HLB plate with 100 μl Methanol and then 200 μl 50/50 Methanol/Water (containing 2% v/v Ammonium Hydroxide), transfers the 300 μl of sample to the plate, washes the plate with 400 μl of 50/50 Methanol/Water (containing 2% v/v Ammonium Hydroxide) and then elutes the drug and IS into a clean 96 deep well block with 200 μl of 70/30 Methanol/Water (containing 2% v/v Acetic Acid). The eluent was isolated, evaporated to dryness under a stream of Nitrogen, and reconstituted in 100 μl 60/40 Methanol/10 mM Ammonium Acetate (both containing 0.05% Formic Acid) and vortexed for approximately 30 seconds. The plate was then centrifuged for ˜1 minute at about 3000 RPM. Injection volumes introduced into HPLC system were typically […].
The mobile phase was a binary mixture (60/40) of Methanol and 10 mM Ammonium Acetate (both containing 0.05% Formic Acid). The analytical column was a Phenomenex LUNA Phenyl Hexyl, 5μ, 2.00×50 mm LC/MS column preceded by a 2.0 micron stainless steel precolumn filter. A Hewlett Packard 1100 series quaternary pump was used and a mobile phase flow rate of 0.30 ml/min was maintained. A CTC Analytics (LEAP) HTS PAL autosampler injected the 10 μl sample aliquots onto the column at approximately 3 minute intervals.
The analysis was performed on a Perkin Elmer SCIEX API 3000 triple quadrupole mass spectrometer operated in the positive ion mode. The effluent from the HPLC column was directly introduced into the TurbolonSpray ion source, which was operated at 1500V with a temperature of 375° C. and 6 L/sec nitrogen gas. Nitrogen nebulizer gas was set to 10 and curtain gas was set to 9. Analyte and IS responses were measured using multiple reaction monitoring (MRM). Protonated molecular ions for drug (m/z 381.4), and I.S. (m/z 417.1) were dissociated by collision with nitrogen. Collision gas (CAD) was set to 5 and a collision energy of 32 eV was used. Product ions at m/z 160.0 were monitored for both drug and IS runs.
Subjects were divided into three groups of six individuals: CYP2D6 extensive metabolizers (including one “intermediate” metabolizer), CYP2D6 extensive metabolizers receiving concurrent paroxetine as an inhibitor of CYP2D6 (also including one intermediate metabolizer), and CYP2D6 poor metabolizers. […] Saliva samples were collected on the first day of each study leg.
Samples were subjected to a solid phase extraction procedure followed by chromatography and analysis on a Sciex API3000 tandem quadrupole mass spectrometer.
Mean values were calculated in those cases in which half or greater of the individual values were >LLOQ. A value of zero was used in those cases wherein concentrations were <LLOQ. […] Cav is defined by AUC (0-24 hr)/24.

[2] = Stability of Compound 122 stock solution; format: physicochemical; conditions: HCl salt, 100 μg/ml in 1:1 Methanol/Water, stored at −20° C.
Description: as §1

[3] = 10 mg, EM + paroxetine, Day 1, 10 mg q.d. oral, read-out: Mean saliva concentration, EM + paroxetine, Mean ± SD
[4] = 10 mg, EM + paroxetine, Day 6, 10 mg b.i.d. oral, read-out: Mean saliva concentration, EM + paroxetine, Mean ± SD
[5] = 10 mg, EM, Day 1, 10 mg q.d. oral, read-out: Mean saliva concentration, EM, Mean ± SD
[6] = 10 mg, EM, Day 6, 10 mg b.i.d. oral, read-out: Mean saliva concentration, EM, Mean ± SD
[7] = 10 mg, PM, Day 1, 10 mg q.d. oral, read-out: Mean saliva concentration, PM, Mean ± SD
[8] = 10 mg, PM, Day 6, 10 mg b.i.d. oral, read-out: Mean saliva concentration, PM, Mean ± SD
[9] = 30 mg, EM + paroxetine, Day 11, 30 mg q.d. oral, read-out: Mean saliva concentration, EM + paroxetine, Mean ± SD
[10] = 30 mg, EM + paroxetine, Day 16, 30 mg b.i.d. oral, read-out: Mean saliva concentration, EM + paroxetine, Mean ± SD
[11] = 30 mg, EM, Day 11, 30 mg q.d. oral, read-out: Mean saliva concentration, EM, Mean ± SD
[12] = 30 mg, EM, Day 16, 30 mg b.i.d. oral, read-out: Mean saliva concentration, EM, Mean ± SD
[13] = 30 mg, PM, Day 11, 30 mg q.d. oral, read-out: Mean saliva concentration, PM, Mean ± SD
[14] = 30 mg, PM, Day 16, 30 mg b.i.d. oral, read-out: Mean saliva concentration, PM, Mean ± SD
[15] = 100 mg, EM + paroxetine, Day 21, 100 mg q.d. oral, read-out: Mean saliva concentration, EM + paroxetine, Mean ± SD
[16] = 100 mg, EM, Day 21, 100 mg q.d. oral, read-out: Mean saliva concentration, EM, Mean ± SD
[17] = 100 mg, PM, Day 21, 100 mg q.d. oral, read-out: Mean saliva concentration, PM, Mean ± SD

COc1ccc(OC(F)(F)F)cc1CNC1CCCNC1c1ccccc1 (centres unmarked) [Compound 122, (2-methoxy-5-trifluoromethoxy-benzyl)-(2-phenyl-piperidin-3-yl)-amine]
mean salivary Cav ([1]; 30 mg b.i.d., Cav = AUC (0-24 hr)/24): 4.04 ng/mL | serum Cav corresponding to salivary Cav ([1]; 30 mg b.i.d., salivary Cav divided by fu): 58 ng/mL | concentration at 2 h [1, 3]: 0.5 ± 0.462 ng/mL | concentration at 4 h [1, 3]: 0.632 ± 0.773 ng/mL | concentration at 8 h [1, 3]: 0.533 ± 0.722 ng/mL | concentration at 24 h [1, 3]: 0.192 ± 0.332 ng/mL | concentration at 0 h [1, 4]: 3.21 ± 5.09 ng/mL | concentration at 2 h [1, 4]: 1.92 ± 1.83 ng/mL | concentration at 4 h [1, 4]: 2.97 ± 2.16 ng/mL | concentration at 8 h [1, 4]: 5.68 ± 9.27 ng/mL | concentration at 24 h [1, 4]: 2.16 ± 1.27 ng/mL | concentration at 2 h [1, 5]: 0.545 ± 0.518 ng/mL | concentration at 4 h [1, 5]: 0.524 ± 0.293 ng/mL | concentration at 8 h [1, 5]: 0.313 ± 0.164 ng/mL | concentration at 0 h [1, 6]: 0.27 ± 0.454 ng/mL | concentration at 2 h [1, 6]: 0.541 ± 0.465 ng/mL | concentration at 4 h [1, 6]: 0.987 ± 0.915 ng/mL | concentration at 8 h [1, 6]: 0.805 ± 1.18 ng/mL | concentration at 24 h [1, 6]: 0.418 ± 0.426 ng/mL | concentration at 2 h [1, 7]: 0.517 ± 0.261 ng/mL | concentration at 4 h [1, 7]: 2.23 ± 1.06 ng/mL | concentration at 8 h [1, 7]: 2.31 ± 1.32 ng/mL | concentration at 24 h [1, 7]: 1.05 ± 0.558 ng/mL | concentration at 0 h [1, 8]: 2.93 ± 2.45 ng/mL | concentration at 2 h [1, 8]: 2.85 ± 2.18 ng/mL | concentration at 4 h [1, 8]: 4.69 ± 3.28 ng/mL | concentration at 8 h [1, 8]: 3.23 ± 2.8 ng/mL | concentration at 24 h [1, 8]: 5.51 ± 4.39 ng/mL | concentration at 0 h [1, 9]: 3.86 ± 1.57 ng/mL | concentration at 2 h [1, 9]: 5.98 ± 2.9 ng/mL | concentration at 4 h [1, 9]: 9.51 ± 3.07 ng/mL | concentration at 8 h [1, 9]: 6.3 ± 1.69 ng/mL | concentration at 24 h [1, 9]: 5.59 ± 2.28 ng/mL | concentration at 0 h [1, 10]: 6.16 ± 4.58 ng/mL | concentration at 2 h [1, 10]: 9.11 ± 5.4 ng/mL | concentration at 4 h [1, 10]: 10 ± 6 ng/mL | concentration at 8 h [1, 10]: 9.69 ± 4.74 ng/mL | concentration at 24 h [1, 10]: 9.67 ± 5.91 ng/mL | concentration at 0 h [1, 11]: 1.16 ± 1.81 ng/mL | concentration at 2 h [1, 11]: 3.07 ± 2.77 ng/mL | concentration at 4 h [1, 11]: 4.03 ± 4.1 ng/mL | concentration at 8 h [1, 11]: 3.18 ± 2.99 ng/mL | concentration at 24 h [1, 11]: 1.92 ± 3.13 ng/mL | concentration at 0 h [1, 12]: 2.44 ± 4.17 ng/mL | concentration at 2 h [1, 12]: 2.91 ± 2.49 ng/mL | concentration at 4 h [1, 12]: 4.57 ± 3.03 ng/mL | concentration at 8 h [1, 12]: 3.44 ± 3.67 ng/mL | concentration at 24 h [1, 12]: 5.08 ± 7.08 ng/mL | concentration at 0 h [1, 13]: 8.31 ± 6.8 ng/mL | concentration at 2 h [1, 13]: 6.96 ± 3.73 ng/mL | concentration at 4 h [1, 13]: 11.1 ± 8.5 ng/mL | concentration at 8 h [1, 13]: 14 ± 9.7 ng/mL | concentration at 24 h [1, 13]: 11.8 ± 9.3 ng/mL | concentration at 0 h [1, 14]: 15 ± 10.9 ng/mL | concentration at 2 h [1, 14]: 11.4 ± 6.5 ng/mL | concentration at 4 h [1, 14]: 12.9 ± 7.5 ng/mL | concentration at 8 h [1, 14]: 13.3 ± 9.9 ng/mL | concentration at 24 h [1, 14]: 21.5 ± 18.4 ng/mL | concentration at 24 h ([1]; 100 mg q.d., EM + paroxetine, Day 21, 100 mg q.d. oral, read-out: Mean saliva concentration, EM + paroxetine, Mean ± SD): 15.7 ± 8.8 ng/mL | concentration at 24 h ([1]; 100 mg q.d., EM, Day 21, 100 mg q.d. oral, read-out: Mean saliva concentration, EM, Mean ± SD): 12.5 ± 15.4 ng/mL | concentration at 24 h ([1]; 100 mg q.d., PM, Day 21, 100 mg q.d. oral, read-out: Mean saliva concentration, PM, Mean ± SD): 46.4 ± 27.1 ng/mL | concentration at 0 h [1, 15]: 12.2 ± 2.7 ng/mL | concentration at 2 h [1, 15]: 35.5 ± 24.7 ng/mL | concentration at 4 h [1, 15]: 44.1 ± 32.3 ng/mL | concentration at 8 h [1, 15]: 27.2 ± 10 ng/mL | concentration at 0 h [1, 16]: 6.94 ± 6.81 ng/mL | concentration at 2 h [1, 16]: 19.1 ± 16.6 ng/mL | concentration at 4 h [1, 16]: 21.2 ± 13.6 ng/mL | concentration at 8 h [1, 16]: 14.6 ± 8.6 ng/mL | concentration at 0 h [1, 17]: 32.9 ± 17.1 ng/mL | concentration at 2 h [1, 17]: 23.1 ± 12.1 ng/mL | concentration at 4 h [1, 17]: 46.2 ± 29.1 ng/mL | concentration at 8 h [1, 17]: 41.3 ± 26.2 ng/mL | stock solution stable over period [2]: ≥ 93 days
